Results as given in article PMC12677607, “Identification of a Pair of Linear or Cyclic Naturally Inspired Bifunctional Lipopeptide Antibiotics That Overcome Antimicrobial Resistance” (Advanced Science, 2025).
≈ marks a conversion by molar mass, not a printed value. Bridge positions count the residues as written; N and C are the ends. Square brackets hold non-standard residues; d marks the D form. Peptide text beside a SMILES is read from it. * marks the point of attachment. Myristoyl = CCCCCCCCCCCCCC(=O)*; Orn = NCCC[C@H](N)C(=O)O; Dab = NCC[C@H](N)C(=O)O; Dap = NC[C@H](N)C(=O)O

Assays:
[1] = test system: Streptococcus pyogenes ATCC 19615; assay: microbe, parasite or virus in culture; assay type: cell-based; conditions: for MIC (μg/mL) S. pyogenes ATCC 19615: ATCC 19615, 16 h
Protocol: (§1) All MIC assays were performed two independent times (n = 2) in 96‐well plates using a broth micro‐dilution method. The lowest concentration of that inhibited visible microbial growth was recorded as the MIC value.
(§2) For most of bacterial strains, overnight cultures were diluted 5000‐fold in LB broth. For E. faecium and S. aureus, overnight cultures were diluted 1000‐ and 10000‐fold in LB broth, respectively. 100 µL of diluted cells was mixed with 100 µL of LB broth containing each peptide ranging from 64 to 0.125 µg mL^−1 at 2‐fold serial dilutions.

[2] = test system: Staphylococcus aureus USA300; assay: microbe, parasite or virus in culture; assay type: cell-based; conditions: for MIC (μg/mL) S. aureus USA300: USA300, 16 h
Protocol: as §1, §2

[3] = test system: Klebsiella pneumoniae CRKP 5452; assay: microbe, parasite or virus in culture; assay type: cell-based; conditions: for MIC (μg/mL) K. pneumoniae CRKP 5452: CRKP 5452, 16 h
Protocol: as §1, §2

[4] = test system: Acinetobacter baumannii 1104008; assay: microbe, parasite or virus in culture; assay type: cell-based; conditions: for MIC (μg/mL) A. baumannii 1104008: 1104008, 16 h
Protocol: as §1, §2

HeLa cells = assay: Cytotoxicity assay (CCK-8); assay type: cell-based, human; conditions: 48 h
Protocol: The cytotoxicity of each synAQU peptide was assessed using a cell counting kit‐8 (CCK‐8) assay. HeLa cells were first seeded in a 96‐well flat‐bottom microtiter plate with a density of ∼5000 cells per well and incubated in the DMEM medium supplemented with 10% FBS at 37 °C with 5% CO2 for 24 h. […] All cytotoxicity experiments were done in triplicate (n = 3) and repeated two independent times (n = 2).

[5] = test system: four Gram-negative bacteria, four Gram-positive bacteria, and one fungal pathogen; assay: Initial antimicrobial assay of 17 synAQUs; assay type: cell-based; conditions: MIC up to 64 µg mL^−1, Figure 3a
Protocol: as §1, §2
(§3) For fungal strains, overnight cultures were diluted 2000‐fold in YPD broth. 100 µL of diluted cells was mixed with 100 µL of YPD broth containing each peptide ranging from […] 64 to 0.125 µg mL^−1 at 2‐fold serial dilutions.

[6] = test system: Candida albicans ATCC 10231; assay: MIC assay (YPD broth); assay type: cell-based; conditions: for MIC (μg/mL) C. albicans ATCC 10231: ATCC 10231, 16 h
Protocol: as §1, §3

[7] = test system: Candida albicans ATCC 64550; assay type: cell-based; conditions: ATCC 64550, 16 h
Protocol: as §1, §3

Enterococcus faecalis 28 = assay: microbe, parasite or virus in culture; assay type: cell-based; conditions: 28, 16 h
Protocol: as §1, §2

[8] = test system: Acinetobacter baumannii P53; assay: microbe, parasite or virus in culture; assay type: cell-based; conditions: Table S11; LB broth, 37 °C, 16 h, n = 2
Protocol: as §1, §2

[9] = test system: Vibrio alginolyticus XSBZ14; assay: microbe, parasite or virus in culture; assay type: cell-based; conditions: 16 h
Protocol: as §1, §2

[10] = test system: Salmonella enterica ATCC 14028; assay: microbe, parasite or virus in culture; assay type: cell-based; conditions: ATCC 14028, 16 h
Protocol: as §1, §2

[11] = test system: Klebsiella pneumoniae NCTC 5056; assay: microbe, parasite or virus in culture; assay type: cell-based; conditions: NCTC 5056, 16 h
Protocol: as §1, §2

[12] = test system: Enterococcus faecalis ATCC 29212; assay: microbe, parasite or virus in culture; assay type: cell-based; conditions: ATCC 29212, 16 h
Protocol: as §1, §2

Enterococcus faecalis 26 = assay: microbe, parasite or virus in culture; assay type: cell-based; conditions: 26, 16 h
Protocol: as §1, §2

[13] = test system: Pseudomonas aeruginosa PAO1; assay: microbe, parasite or virus in culture; assay type: cell-based; conditions: Table S11; LB broth, 37 °C, 16 h, n = 2
Protocol: as §1, §2

[14] = test system: Acinetobacter baumannii ATCC 19606; assay: microbe, parasite or virus in culture; assay type: cell-based; conditions: ATCC 19606, 16 h
Protocol: as §1, §2

[15] = test system: Streptococcus mutans ATCC 25175; assay: microbe, parasite or virus in culture; assay type: cell-based; conditions: ATCC 25175, 16 h
Protocol: as §1, §2

[16] = test system: Staphylococcus aureus ATCC 25923; assay: microbe, parasite or virus in culture; assay type: cell-based; conditions: ATCC 25923, 16 h
Protocol: as §1, §2

[17] = test system: Klebsiella pneumoniae CRKP HS11286; assay: microbe, parasite or virus in culture; assay type: cell-based; conditions: CRKP HS11286, 16 h
Protocol: as §1, §2

[18] = test system: Staphylococcus aureus ATCC 6538; assay: microbe, parasite or virus in culture; assay type: cell-based; conditions: ATCC 6538, 16 h
Protocol: as §1, §2

[19] = test system: Pseudomonas aeruginosa ATCC 9027; assay: microbe, parasite or virus in culture; assay type: cell-based; conditions: ATCC 9027, 16 h
Protocol: as §1, §2

[20] = test system: Acinetobacter baumannii ATCC 17978; assay: microbe, parasite or virus in culture; assay type: cell-based; conditions: ATCC 17978, 16 h
Protocol: as §1, §2

[21] = test system: Klebsiella pneumoniae ATCC 13883; assay: microbe, parasite or virus in culture; assay type: cell-based; conditions: ATCC 13883, 16 h
Protocol: as §1, §2

[22] = test system: Salmonella typhimurium LXX; assay: microbe, parasite or virus in culture; assay type: cell-based; conditions: murium LXX, 16 h
Protocol: as §1, §2

[23] = test system: Staphylococcus aureus Newman; assay: microbe, parasite or virus in culture; assay type: cell-based; conditions: Newman, 16 h
Protocol: as §1, §2

[24] = test system: Enterococcus faecium 35682; assay: microbe, parasite or virus in culture; assay type: cell-based; conditions: Table S11; LB broth, 37 °C, 16 h, n = 2
Protocol: as §1, §2

Shigella Castellani LXX = assay: MIC assay (broth micro-dilution); assay type: cell-based; conditions: Table S11; LB broth, 37 °C, 16 h, n = 2
Protocol: as §1, §2

Escherichia coli DH5α = assay: MIC assay (broth micro-dilution); assay type: cell-based; conditions: Table S11; LB broth, 37 °C, 16 h, n = 2
Protocol: as §1, §2

[25] = Table S11, LB broth, 37 °C, 16 h, n = 2

Compound: CCCCCCCCCCCCCC(=O)N[C@H](C)C(=O)N[C@H](C)C(=O)N[C@H](Cc1ccccc1)C(=O)N[C@H](C(=O)N[C@@H](CCCNC(=N)N)C(=O)O)[C@@H](C)O [synAQU1-L] (Myristoyl-[dA][dA][dF]TR-OH)
- MIC (μg/mL) S. pyogenes ATCC 19615 [1]: > 64 µg/mL
- MIC (μg/mL) S. aureus USA300 [2]: > 64 µg/mL
- MIC (μg/mL) K. pneumoniae CRKP 5452 [3]: > 64 µg/mL
- MIC (μg/mL) A. baumannii 1104008 [4]: > 64 µg/mL
- MIC (μg/mL) Hela (HeLa cells): > 64 µg/mL
- activity against all nine tested strains [5]: not active
- MIC (μg/mL) C. albicans ATCC 10231 [6]: > 64 µg/mL

Compound: CCCCCCCCCCCCCC(=O)N[C@@H](Cc1ccccc1)C(=O)N[C@@H](CCCN)C(=O)N[C@H]1CCCNC(=O)CNC(=O)[C@H](CCN)NC(=O)[C@@H](Cc2ccc(O)cc2)NC(=O)[C@H](CC(C)C)NC(=O)[C@H]([C@@H](C)CC)NC(=O)[C@@H](C(C)C)NC1=O [synAQU2-C3] (Myristoyl-F[Orn][Orn][dV]IL[dY][Dab]G; lactam 3-C)
- MIC Candida albicans ATCC 64550 [7]: > 64 µg/mL
- MIC Enterococcus faecalis 28 (Enterococcus faecalis 28): > 64 µg/mL
- MIC Acinetobacter baumannii P53 [8]: 8 µg/mL (≈ 6.5 µM)
- MIC Vibrio alginolyticus XSBZ14 [9]: 16 µg/mL (≈ 13 µM)
- MIC Salmonella enterica ATCC 14028 [10]: > 64 µg/mL
- MIC Klebsiella pneumoniae NCTC 5056 [11]: 32 µg/mL (≈ 26 µM)
- MIC Enterococcus faecalis ATCC 29212 [12]: 32 µg/mL (≈ 26 µM)
- MIC Enterococcus faecalis 26 (Enterococcus faecalis 26): 8 µg/mL (≈ 6.5 µM)
- MIC Streptococcus pyogenes ATCC 19615 [1, 25]: 2 µg/mL (≈ 1.62 µM)
- MIC Pseudomonas aeruginosa PAO1 [13]: 32 µg/mL (≈ 26 µM)
- MIC Staphylococcus aureus USA300 [2, 25]: > 64 µg/mL
- MIC Klebsiella pneumoniae CRKP 5452 [3, 25]: > 64 µg/mL
- MIC Acinetobacter baumannii ATCC 19606 [14]: > 64 µg/mL
- MIC Streptococcus mutans ATCC 25175 [15]: 8 µg/mL (≈ 6.5 µM)
- MIC Staphylococcus aureus ATCC 25923 [16]: 16 µg/mL (≈ 13 µM)
- MIC Klebsiella pneumoniae CRKP HS11286 [17]: > 64 µg/mL
- MIC Staphylococcus aureus ATCC 6538 [18]: 16 µg/mL (≈ 13 µM)
- MIC Acinetobacter baumannii 1104008 [4, 25]: 8 µg/mL (≈ 6.5 µM)
- MIC Pseudomonas aeruginosa ATCC 9027 [19]: > 64 µg/mL
- MIC Acinetobacter baumannii ATCC 17978 [20]: 4 µg/mL (≈ 3.25 µM)
- MIC Klebsiella pneumoniae ATCC 13883 [21]: > 64 µg/mL
- MIC Salmonella typhimurium LXX [22]: > 64 µg/mL
- MIC Staphylococcus aureus Newman [23]: > 64 µg/mL
- MIC Enterococcus faecium 35682 [24]: 8 µg/mL (≈ 6.5 µM)
- MIC Shigella Castellani LXX (Shigella Castellani LXX): > 64 µg/mL
- MIC Escherichia coli DH5α (Escherichia coli DH5α): > 64 µg/mL
- MIC Candida albicans ATCC 10231 ([6]; Table S11, YPD broth, 30 °C, 16 h, n = 2): > 64 µg/mL

Compound: CCCCCCCCCCCCCC(=O)N[C@@H](CN)C(=O)N[C@@H]1C(=O)N[C@@H](CC(C)C)C(=O)N[C@@H](CO)C(=O)N[C@@H](CCN)C(=O)N[C@@H](CN)C(=O)N[C@@H](Cc2ccccc2)C(=O)N[C@@H]([C@@H](C)CC)C(=O)N[C@@H](CCCN)C(=O)N[C@@H](CC(N)=O)C(=O)N[C@@H](Cc2ccccc2)C(=O)O[C@@H]1C [synAQU5-C2] (Myristoyl-[Dap]TLS[Dab][Dap]FI[Orn]NF; ester 2-C)
- MIC (μg/mL) S. pyogenes ATCC 19615 [1]: > 64 µg/mL
- MIC (μg/mL) S. aureus USA300 [2]: > 64 µg/mL
- MIC (μg/mL) K. pneumoniae CRKP 5452 [3]: > 64 µg/mL
- MIC (μg/mL) A. baumannii 1104008 [4]: > 64 µg/mL
- MIC (μg/mL) Hela (HeLa cells): > 64 µg/mL
- activity against all nine tested strains [5]: not active
- MIC (μg/mL) C. albicans ATCC 10231 [6]: > 64 µg/mL
